In patent US20060045864A1, “Preventing marine biofouling by inhibiting adhesive release from barnacles” (priority 2004, published 2006):

Legend:
[1] = system: release of barnacle adhesive; assay: release of barnacle adhesive; set-up: species or system Balanus improvisus; conditions: in vivo
From the text: (§1) All the below described experiments are on the species Balanus improvisus.
The release of the adhesive is governed by a G-protein coupled receptor and it is possible to stimulate release of the adhesive glands by adding dopamine. According to the same principle, it is possible to block the release of the adhesive proteins by using a dopamine antagonist that block the action of dopamine. […] The invention herein includes use of SCH23390, and salts and derivatives thereof, as well as other D1 or D5 receptor antagonists such as […], SCH 39166, SCH 233388 and the like or antagonists against other receptors with the same function.

barnacle cypris larvae = assay: settling and metamorphosis of barnacle cypris larvae in Petri dish with filtered seawater; format: in vivo, Balanus improvisus; conditions: 20 cypris larvae in 5 ml filtered seawater; for inhibition of settling rate of barnacle cypris larvae, compared between substances and control: 1 μM and 10 μM, accumulative settling frequency over 10 days (FIG. 1)
Experimental: as §1
In a Petri dish containing 5 ml of filtered seawater, 20 cypris larvae and a defined concentration of the different pharmacological agents. […] 20 barnacle cypris larvae were added into a Petri dish containing 5 ml filtered seawater and different concentration of haloperidole and SCH 23990. […] Instead 1 μM of SCH 23390 inhibits the settling rate almost completely. Typically, 0.01-1.0% of the dopamine antagonist effects the desired result, typically dissolved in ethanol and mixed with commercially available paints, such as VC 17 New Technology (solid paint) International Coatings (Akzo Nobel bv, Arnhem, NL), SPF (Self polishing, SPC) (Loutrec AB, Lidingo, Sweden), TF (combined solid/ablative) (Loutrec AB), Fabi Eco (ablative paint) International Coatings (Akzo Nobel bv).

| Compound | inhibition of the release of barnacle adhesive [1] | inhibition of settling rate of barnacle cypris larvae, compared between substances and control (barnacle cypris larvae) | effect on settlement rate of barnacle cypris larvae (barnacle cypris larvae; 1 μM, accumulative settling over 10 days (FIG. 1)) |
| --- | --- | --- | --- |
| CN1CCc2cc(Cl)c(O)cc2[C@@H](c2ccccc2)C1 [SCH 23390, (R)-(+)-7-Chloro-8-hydroxy-3-methyl-1-phenyl-2,3,4,5-tetrahydro-1H-3-benzazepine] | can inhibit the release of barnacle adhesive | effectively inhibits the settling rate | almost complete reducing effect |
| O=C(CCCN1CCC(O)(c2ccc(Cl)cc2)CC1)c1ccc(F)cc1 [haloperidol] |  | less effective |  |
